Earlier results in patent US20230059204A1, “T[…]-DOSING […] OF PHARMACEUTICAL AGENTS” (PIKE THERAPEUTICS, INC., priority 2021, published 2023).

Tested on: serotonin receptors in the brain
Conditions: once ingested

SMILES: CN(C)CCc1c[nH]c2cccc(OP(=O)(O)O)c12 [psilocybin, [3-(2-dimethylaminoethyl)-1H-indol-4-yl] dihydrogen phosphate]
- duration of mind-altering effects: two to six
